Results: patent US20070071746A1, “C/CLP antagonists and methods of use thereof” (MEDIMMUNE, INC., priority 2005, published 2007)
“Also recorded” adds a separate entry of the source. One block for each compound: values may come before it.

Columns and labels:
[1] = tested on: memory T cells isolated from human blood; experiment: Galectin-3 induced apoptosis in memory T cells; type: cell-based
[2] = tested on: Jurkat cells; experiment: Galectin Induced Calcium Flux; type: cell-based, human; conditions: for calcium flux in Jurkat cells: galectin-3 40 μg/ml; for inhibition of galectin-3 induced calcium flux: 200 μg/ml, versus 100 μg/ml
Experimental: Galectin Induced Calcium Flux: Jurkat cells were labeled with Fluo-4AM and Fura-Red. galectin-3 (40 μg/ml) was added to the cells and Ca flux was analyzed as FL1/FL3. Analysis was performed for 5 minutes. For interaction analysis gal-3 (40μg/ml) is pre-incubated with huAMCase (100-200 μg/ml) or huChTrase (100-200 μg/ml) for 15 mins at RT prior to addition.

[3] = tested on: Jurkat T cells; experiment: Galectin-3 induced apoptosis in Jurkat T cells; type: cell-based, human
[4] = 4-Mu-Chitotrioside assay, activity of recombinant AMCase proteins; type: biochemical; conditions: 4-Mu-Chitotrioside assay (soluble substrate)
Experimental: Activity Assays Used: Chitinase activity was assayed using two different but commonly used assays. One assay (4-Mu-Chitotrioside assay) utilized 4-methylumbelliferyl-β-D-N,N′,N″-triacetylchitotrise as a substrate (see, e.g., Hollak et al., 1994, J. Clin. Invest. 93: 1288-92). The other (chitin-azure assay) utilized chitin azure as a substrate (see, e.g., Thompson et al., (2001) Appl Environ Microbiol. 67:4001-4008).

[5] = tested on: peritoneal macrophages; experiment: Cytokine induction assay with recombinant mYKL-40; type: cell-based, mouse; conditions: for secretion of IL-6 / secretion of KC: increasing amounts of recombinant mYKL-40
Experimental: Isolation of peritoneal macrophaaes: 4-6 week old Balb/c mice were injected i.p. with 1 ml of fluid thioglyclollate medium (Becton, Dickinson and Company, Sparks, Md.). 4 days later peritoneal macrophages were harvested by lavage (ice-cold PBS w/o Ca, Mg, 10 ml/mouse). Cells were washed with PBS twice and resuspended in 10% FBS/RPMI 1640 medium (Glutamax, 25 mM Hepes, 1×antibiotic-antimycotic (Invitrogen, Grand Island, N.Y.) at 2.5×10^6 cells/ml. Cells were plated in 96 well TC plates (100 μl/well). After overnight incubation at 37° C. nonadherent cells were removed by washing with serum free RPMI 1640. 100 μl/well of 10% FBS/RPMI 1640 were added and cells were cultured for 72 hr.
Cytokine Induction Assays: isolated peritoneal macrophages (described above) were washed with PBS, proteins and antibodies, concentrated supernatants, were added in 2% FBS/RPMI 1640, 100 μl/well. After 18 hr incubation supernatants were collected and cytokine concentrations were measured using mouse cytokine multiplex kit (Upstate, Lake Placid, N.Y.) on Luminex 100.

[6] = target: T1, human AMCase / human galectin 4 (Homo sapiens, UniProt P56470); experiment: C/CLP-Galectin Interaction ELISA; type: binding
T1 construct: 6xHis (C); made in house; host or cells: HEK293 (AMCase)
T1 sequence (P56470 1-323): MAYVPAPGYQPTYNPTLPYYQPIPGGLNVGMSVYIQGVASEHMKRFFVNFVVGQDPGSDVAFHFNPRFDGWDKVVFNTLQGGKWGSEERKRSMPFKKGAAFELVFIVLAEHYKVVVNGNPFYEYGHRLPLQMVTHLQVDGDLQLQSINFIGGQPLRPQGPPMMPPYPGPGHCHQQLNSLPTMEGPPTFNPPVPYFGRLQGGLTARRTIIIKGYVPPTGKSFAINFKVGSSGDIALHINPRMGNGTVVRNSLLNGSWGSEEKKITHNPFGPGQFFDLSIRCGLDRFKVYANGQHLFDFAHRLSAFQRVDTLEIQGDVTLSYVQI
Experimental: (§1) C/CLP-Galectin Interaction ELISA: Galectin is immobilized on a microtiter plate in DPBS over night at 2-8° C. The plates are then washed with DPBS, 0.1% Tween 20 and blocked for 1 hour at room temperature. Serial dilutions of biotin labeled AMCase are added to each well and incubated for ˜1 hour at room temperature followed by HRP labeled streptavidin. Horseradish peroxydase activity is detected with TMB substrate (KPL, MD) and the reaction is quenched with 1% H2SO4. The absorbance is read at 450 nm.

[7] = target: T2, galectin 2 (Homo sapiens, UniProt P05162); experiment: C/CLP-Galectin Interaction ELISA; type: binding
T2 sequence (P05162 1-132): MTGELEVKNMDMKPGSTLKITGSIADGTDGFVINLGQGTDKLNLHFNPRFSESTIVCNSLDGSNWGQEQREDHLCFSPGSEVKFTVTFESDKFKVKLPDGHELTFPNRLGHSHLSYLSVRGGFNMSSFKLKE
Experimental: as §1

[8] = tested on: human AMCase / human galectin 3; experiment: C/CLP-Galectin Interaction ELISA; type: binding; conditions: listed as full length human AMCase
Experimental: as §1

[9] = target: T3, galectin 8 (Homo sapiens, UniProt O00214); experiment: C/CLP-Galectin Interaction ELISA; type: binding
T3 sequence (O00214 1-317): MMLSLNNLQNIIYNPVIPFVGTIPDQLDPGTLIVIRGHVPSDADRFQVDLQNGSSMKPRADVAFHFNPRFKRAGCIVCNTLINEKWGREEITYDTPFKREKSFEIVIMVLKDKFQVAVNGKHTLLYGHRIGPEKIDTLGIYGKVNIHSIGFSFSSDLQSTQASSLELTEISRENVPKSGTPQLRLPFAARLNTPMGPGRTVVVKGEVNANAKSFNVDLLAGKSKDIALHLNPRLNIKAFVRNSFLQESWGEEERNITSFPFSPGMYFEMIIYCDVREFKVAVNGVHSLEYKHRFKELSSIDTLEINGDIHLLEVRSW
Experimental: as §1

[10] = target: galectin 1 (Homo sapiens, UniProt P09382); experiment: C/CLP-Galectin Interaction ELISA; type: binding
galectin 1, sequence (P09382 2-135 limits assumed): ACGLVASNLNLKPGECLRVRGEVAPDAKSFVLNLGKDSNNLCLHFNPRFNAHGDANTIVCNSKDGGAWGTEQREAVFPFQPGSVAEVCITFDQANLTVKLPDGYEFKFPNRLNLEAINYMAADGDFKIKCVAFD
Experimental: as §1

[11] = target: galectin 7 (Homo sapiens, UniProt P47929); experiment: C/CLP-Galectin Interaction ELISA; type: binding
galectin 7, sequence (P47929 whole entry): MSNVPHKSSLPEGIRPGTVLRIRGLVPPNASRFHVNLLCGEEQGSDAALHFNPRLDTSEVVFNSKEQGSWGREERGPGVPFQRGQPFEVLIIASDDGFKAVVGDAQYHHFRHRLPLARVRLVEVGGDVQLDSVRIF
Experimental: as §1

[12] = target: T4, mouse AMCase / mouse galectin-3 (Mus musculus, UniProt Q91XA9); experiment: C/CLP-Galectin Interaction ELISA; type: binding; conditions: data not shown
T4 construct: 6xHis (C); made in house; host or cells: HEK293 (FreeStyle 293), secreted and purified on nickel NTA
T4 sequence (Q91XA9 22-473): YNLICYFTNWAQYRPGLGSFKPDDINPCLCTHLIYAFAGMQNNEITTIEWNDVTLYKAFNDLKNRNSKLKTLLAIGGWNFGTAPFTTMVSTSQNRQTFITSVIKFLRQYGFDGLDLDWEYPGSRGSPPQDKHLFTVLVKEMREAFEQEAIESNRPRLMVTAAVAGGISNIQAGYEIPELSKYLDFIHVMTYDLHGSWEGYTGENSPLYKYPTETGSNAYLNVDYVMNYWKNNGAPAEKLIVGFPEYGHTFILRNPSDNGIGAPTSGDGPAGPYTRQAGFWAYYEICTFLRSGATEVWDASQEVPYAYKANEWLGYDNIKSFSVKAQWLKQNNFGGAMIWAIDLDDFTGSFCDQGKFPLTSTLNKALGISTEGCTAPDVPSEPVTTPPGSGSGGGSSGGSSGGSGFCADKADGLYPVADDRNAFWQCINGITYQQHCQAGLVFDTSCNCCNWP
Experimental: as §1

[13] = target: T5, mouse AMCase / mouse galectin-4 (Mus musculus, UniProt Q91XA9); experiment: C/CLP-Galectin Interaction ELISA; type: binding; conditions: data not shown
T5 construct: 6xHis (C); made in house; host or cells: HEK293 (FreeStyle 293), secreted and purified on nickel NTA
T5 sequence (Q91XA9 22-473): as above
Experimental: as §1

[14] = listed as recombinant mouseYKL-40

binding of AMCase to galectin 4 ([6]; listed as full length human AMCase): confirmed; also recorded: binds
binding of AMCase to galectin 2 [7]: not
binding of AMCase to galectin 3 [8]: confirmed; also recorded: binds
binding of AMCase to galectin 8 [9]: not
binding of AMCase to galectin 1 [10]: not
binding of AMCase to galectin 7 [11]: not
Compound: AMCase: recombinant human acidic mammalian chitinase
inhibition of galectin-3 induced apoptosis of memory T cells ([1]; 10 μg galectin-3, 50 μg or more of AMCase): inhibited; also recorded: significant inhibition
inhibition of galectin-3 mediated calcium flux [2]: inhibited
inhibition of galectin-3 induced calcium flux [2]: further inhibition

binding of mouse AMCase to mouse galectin-3 [12]: bind
binding of mouse AMCase to mouse galectin-4 [13]: bind
Compound: mouse AMCase: recombinant mouse acidic mammalian chitinase

inhibition of binding of Human AMCase to Galectin 4 [6]: inhibited
Compound: OC[C@H]1O[C@@H](O[C@H]2[C@H](O)[C@@H](O)C(O)O[C@@H]2CO)[C@H](O)[C@@H](O)[C@H]1O (some centres unmarked) [lactose, reference compound]
effect on galectin-3 induced apoptosis of Jurkat T cells ([3]; addition of lactose): abolished; also recorded: reduced the levels of apoptosis seen to nearly background levels

The remaining lines, values behind:

Compound: rhuGal-3: recombinant human Galectin 3
apoptosis of memory T cells ([1]; galectin-3 alone): induced apoptosis
calcium flux in Jurkat cells ([2]; listed as Galectin): results in calcium flux
calcium flux in Jurkat cells ([2]; listed as Galectin-3): mediate calcium flux
apoptosis of Jurkat T cells ([3]; 1 μg rhuGal-3): Little to no apoptosis
apoptosis of Jurkat T cells ([3]; 5, 10 and 30 μg rhuGal-3): increased apoptosis
apoptosis of Jurkat T cells ([3]; 5, 10 and 30 μg rhuGal-3, listed as Galectin-3): induce apoptosis

Compound: AMCase-TR: recombinant AMCase protein lacking the CBD
activity of recombinant AMCase proteins [4]: high activity
activity of recombinant AMCase proteins ([4]; listed as truncated form): active

Compound: mYKL-40: recombinant mouse YKL-40/BRP-39
induction of IL-10 [5]: induced
induction of RANTES [5]: induced
induction of TNF-α [5]: induced
secretion of IL-6 [5]: increase
secretion of KC [5]: increase
secretion of IL-6 [5, 14]: dose sensitive increase
secretion of KC [5, 14]: dose sensitive increase

Compound: D136A: AMCase full length protein containing the D136A mutation [Antibody D136A]
activity of recombinant AMCase proteins [4]: no activity; also recorded: completely abolished activity

Compound: Cht: recombinant human chitotriosidase
inhibition of galectin-3 mediated calcium flux [2]: inhibited
inhibition of galectin-3 induced calcium flux [2]: not

Compound: full length AMCase: recombinant full length AMCase protein
activity of recombinant AMCase proteins [4]: high activity; also recorded: active
